Source: US12491180B2, “Application of compound in treating pneumonia” (SHENZHEN OPTIMUM BIOLOGICAL TECHNOLOGY CO., LTD., priority 2019, dated 2025)
Converted amounts (≈) assume the structure as drawn. Read-outs that look alike come from different tables or passages of the source.

Assays:
[1] = system: Enterobacter aerogenes 8193; assay: MIC, solid dilution method; format: cell-based; details: Klebsiella aerogenes
Protocol: CRE Enterobacter aerogenes 8193, a total of 1 strain;
(§1) The above-mentioned glycerol-preserved strains were taken out from the −80° C. refrigerator, streaked and inoculated on MHA plates, labeled, and cultured overnight in a 37° C. incubator.
(§2) The inoculum was prepared directly from bacterial suspension, and several recovered colonies were picked and directly prepared into a bacterial suspension with a turbidity of No. 0.5 McFarland units in normal saline, and a 10-fold dilution was made during inoculation.
(§3) 6 bottles of MHA culture medium 500 mL/bottle were prepared, and the pH was adjusted to 7.2-7.4, sterilized at 121° C. for 15 min, and the medium was placed in a 55° C. water bath to keep warm.
(§4) Sterile blank petri dishes were taken, and marked with each FL drug/concentration according to 2-fold dilution, and 10 concentrations of each drug starting from 8 μg/mL were tested.
(§5) […]; 20 mL was aspirated and added to a petri dish consistent with the mark, and then 20 mL of MHA culture medium was added to the rest of the drug-containing culture medium, mixed evenly, that is, the 2-fold diluted drug-containing culture medium; 20 mL was aspirated and added to the petri dish consistent with the mark, and then diluted to the 10th concentration and the […] respectively by repeating the above-mentioned steps, and then poured into the petri dish.
(§6) 4 bacterial control petri dishes without drug were prepared at the same time as a control.
(§7) The positioning needle and the inoculation needle were installed according to the order of placement of the colony on the inoculation plate. After inoculation, a bacterial solution circle was formed on the petri dish. After the bacterial solution was absorbed by the agar, the petri dish was placed in an incubator at 37° C. for overnight incubation (16-20 hours), and then taken out.
(§8) The minimum inhibitory concentrations of the compounds against the CRE and CSE strains were determined by the solid dilution method, and the results are shown in Tables 3 and 4.

[2] = system: E. ae 14186; assay: MIC, solid dilution method; format: cell-based, Enterobacter aerogenes; details: Klebsiella aerogenes, 14186
Protocol: as §1, §2, §3, §4, §5, §6, §7, §8

[3] = system: Enterobacter cloacae 11090; assay: MIC, solid dilution method; format: cell-based
Protocol: as §1, §2, §4, §6, §7

[4] = system: Enterobacter cloacae 11699; assay: MIC, solid dilution method; format: cell-based
Protocol: as §1, §2, §4, §6, §7

[5] = system: Enterobacter cloacae 14653; assay: MIC, solid dilution method; format: cell-based
Protocol: as §1, §2, §4, §6, §7

[6] = system: E. coli 11256; assay: MIC, solid dilution method; format: cell-based; details: Escherichia coli
Protocol: as §1, §2, §3, §4, §5, §6, §7, §8

[7] = system: Escherichia coli 11119; assay: MIC, solid dilution method; format: cell-based
Protocol: as §1, §2, §3, §4, §5, §6, §7, §8

[8] = system: Escherichia coli 13897; assay: MIC, solid dilution method; format: cell-based
Protocol: as §1, §2, §3, §4, §5, §6, §7, §8

[9] = system: Escherichia coli 14828; assay: MIC, solid dilution method; format: cell-based
Protocol: as §1, §2, §3, §4, §5, §6, §7, §8

[10] = system: Klebsiella oxytoca 12391; assay: MIC, solid dilution method; format: cell-based
Protocol: as §1, §2, §3, §4, §5, §6, §7, §8

[11] = system: Klebsiella oxytoca 14151; assay: MIC, solid dilution method; format: cell-based
Protocol: as §1, §2, §3, §4, §5, §6, §7, §8

[12] = system: Klebsiella oxytoca 14153; assay: MIC, solid dilution method; format: cell-based
Protocol: as §1, §2, §3, §4, §5, §6, §7, §8

[13] = system: Klebsiella oxytoca 6777; assay: MIC, solid dilution method; format: cell-based
Protocol: as §1, §2, §3, §4, §5, §6, §7, §8

[14] = system: Escherichia coli ATCC25922; assay: MIC, solid dilution method; format: cell-based
Protocol: (§9) (1) Standard strains: Escherichia coli BAA-2452, Escherichia coli ATCC25922, Klebsiella pneumoniae BAA-1705; all purchased from ATCC.
as §1, §2, §3, §4, §5, §6, §7, §8

[15] = system: Escherichia coli BAA-2452; assay: MIC, solid dilution method; format: cell-based
Protocol: as §9, §1, §2, §3, §4, §5, §6, §7, §8

[16] = system: Klebsiella pneumoniae BAA-1705; assay: MIC, solid dilution method; format: cell-based
Protocol: as §9, §1, §2, §3, §4, §5, §6, §7, §8

[17] = system: Klebsiella pneumoniae 11544; assay: MIC, solid dilution method; format: cell-based
Protocol: (§10) (2) Clinical isolated strains: CRE Klebsiella pneumoniae 5846, 11544, 12559, 13249 and CSE Klebsiella pneumoniae 8733, a total of 5 strains;
as §1, §2, §3, §4, §5, §6, §7, §8

[18] = system: Klebsiella pneumoniae 12559; assay: MIC, solid dilution method; format: cell-based
Protocol: as §10, §1, §2, §3, §4, §5, §6, §7, §8

[19] = system: Klebsiella pneumoniae 13249; assay: MIC, solid dilution method; format: cell-based
Protocol: as §10, §1, §2, §3, §4, §5, §6, §7, §8

[20] = system: Klebsiella pneumoniae 5846; assay: MIC, solid dilution method; format: cell-based
Protocol: as §10, §1, §2, §3, §4, §5, §6, §7, §8

[21] = system: Klebsiella pneumoniae 8733; assay: MIC, solid dilution method; format: cell-based
Protocol: as §10, §1, §2, §3, §4, §5, §6, §7, §8

[22] = system: Citrobacter freundii 7646; assay: MIC, solid dilution method; format: cell-based
Protocol: (§11) CRE Citrobacter freundii 9434, 9484 and CSE Citrobacter freundii 7646, a total of 3 strains;
as §1, §2, §3, §4, §5, §6, §7, §8

[23] = system: Citrobacter freundii 9434; assay: MIC, solid dilution method; format: cell-based; details: 9434
Protocol: as §11, §1, §2, §3, §4, §5, §6, §7, §8

[24] = system: Citrobacter freundii 9484; assay: MIC, solid dilution method; format: cell-based
Protocol: as §11, §1, §2, §3, §4, §5, §6, §7, §8

[25] = system: Acinetobacter baumannii 6383; assay: MIC, solid dilution method; format: cell-based
Protocol: (§12) CRE Acinetobacter baumannii 8476, 6383, a total of 2 strains; CRE Serratia marcescens 14541, a total of 1 strain; all collected in the Department of Infectious Diseases, West China Hospital, Chengdu, Sichuan Province, and kept in our laboratory.
as §1, §2, §3, §4, §5, §6, §7, §8

[26] = system: Acinetobacter baumannii 8476; assay: MIC, solid dilution method; format: cell-based
Protocol: as §12, §1, §2, §3, §4, §5, §6, §7, §8

[27] = system: Serratia marcescens 14541; assay: MIC, solid dilution method; format: cell-based; details: 14541
Protocol: as §12, §1, §2, §3, §4, §5, §6, §7, §8

[28] = system: 16 clinical CRE strains; assay: MIC50, MIC90 and MIC range against 16 clinical CRE strains; format: cell-based
Protocol: as §1, §2, §3, §4, §5, §6, §7, §8

CC1(C)[C@H](NC(=O)/C(=N\O[C@@H](COc2ccc3c(c2)CN(C(=N)N(CCN)CCN)C3)C(=O)O)c2csc(N)n2)C(=O)N1OS(=O)(=O)O [Compound 45]
MIC [1]; 8193: 4 µg/mL (≈ 5.61 µM) | MIC [2]: 2 µg/mL (≈ 2.81 µM) | MIC [3]; 11090: 4 µg/mL (≈ 5.61 µM) | MIC [4]; 11699: 0.25 µg/mL (≈ 0.351 µM) | MIC [5]; 14653: 2 µg/mL (≈ 2.81 µM) | MIC [6]; 11256: 0.25 µg/mL (≈ 0.351 µM) | MIC [7]; 11119: 8 µg/mL (≈ 11.2 µM) | MIC [8]; 13897: 0.5 µg/mL (≈ 0.701 µM) | MIC [9]; 14828: 2 µg/mL (≈ 2.81 µM) | MIC [10]; 12391: 1 µg/mL (≈ 1.4 µM) | MIC [11]; 14151: 2 µg/mL (≈ 2.81 µM) | MIC [12]; 14153: 2 µg/mL (≈ 2.81 µM) | MIC [13]; 6777: 2 µg/mL (≈ 2.81 µM) | MIC ([14]; ATCC25922): 0.125 µg/mL (≈ 0.175 µM) | MIC ([15]; BAA2452): 1 µg/mL (≈ 1.4 µM) | MIC ([16]; BAA1705): 2 µg/mL (≈ 2.81 µM) | MIC [17]; 11544: > 8 µg/mL | MIC [18]; 12559: 0.5 µg/mL (≈ 0.701 µM) | MIC [19]; 13249: > 8 µg/mL | MIC [20]; 5846: 1 µg/mL (≈ 1.4 µM) | MIC [21]; 8733: 0.5 µg/mL (≈ 0.701 µM) | MIC [22]; 7646: 1 µg/mL (≈ 1.4 µM) | MIC [23]: 2 µg/mL (≈ 2.81 µM) | MIC [24]; 9484: 0.25 µg/mL (≈ 0.351 µM) | MIC [25]; 6383: > 8 µg/mL | MIC [26]; 8476: > 8 µg/mL | MIC [27]: > 8 µg/mL | MIC50 [28]: 4 µg/mL (≈ 5.61 µM) | MIC90 [28]: > 8 µg/mL

C[C@@H](O)[C@H]1C(=O)N2C(C(=O)O)=C(S[C@@H]3CN[C@H](C(=O)N(C)C)C3)[C@H](C)[C@H]12 [Meropenem, reference compound]
MIC ([1]; E. ae 8193, CRE clinical isolate, MHA agar, 37° C., 16-20 hours, read-out: MIC): 16 µg/mL (≈ 41.7 µM) | MIC [2]: 0.125 µg/mL (≈ 0.326 µM) | MIC ([3]; E. cl 11090, CRE clinical isolate, MHA agar, 37° C., 16-20 hours, read-out: MIC): 0.5 µg/mL (≈ 1.3 µM) | MIC ([4]; E. cl 11699, CSE clinical isolate, MHA agar, 37° C., 16-20 hours, read-out: MIC): < 0.015 µg/mL | MIC ([5]; E. cl 14653, CRE clinical isolate, MHA agar, 37° C., 16-20 hours, read-out: MIC): 64 µg/mL (≈ 167 µM) | MIC ([6]; E. coli 11256, MHA agar, 37° C., 16-20 hours, read-out: MIC): < 0.015 µg/mL | MIC ([7]; E. coli 11119, CRE clinical isolate, MHA agar, 37° C., 16-20 hours, read-out: MIC): 16 µg/mL (≈ 41.7 µM) | MIC ([8]; E. coli 13897, CRE clinical isolate, MHA agar, 37° C., 16-20 hours, read-out: MIC): 4 µg/mL (≈ 10.4 µM) | MIC ([9]; E. coli 14828, CRE clinical isolate, MHA agar, 37° C., 16-20 hours, read-out: MIC): 8 µg/mL (≈ 20.9 µM) | MIC ([10]; K. ox 12391, CRE clinical isolate, MHA agar, 37° C., 16-20 hours, read-out: MIC): 2 µg/mL (≈ 5.22 µM) | MIC ([11]; K. ox 14151, CRE clinical isolate, MHA agar, 37° C., 16-20 hours, read-out: MIC): 16 µg/mL (≈ 41.7 µM) | MIC ([12]; K. ox 14153, CRE clinical isolate, MHA agar, 37° C., 16-20 hours, read-out: MIC): 32 µg/mL (≈ 83.4 µM) | MIC ([13]; K. ox 6777, CRE clinical isolate, MHA agar, 37° C., 16-20 hours, read-out: MIC): 16 µg/mL (≈ 41.7 µM) | MIC ([14]; E. coli ATCC25922, standard strain, MHA agar, 37° C., 16-20 hours, read-out: MIC): < 0.015 µg/mL | MIC ([15]; BAA2452, E. coli BAA-2452, standard strain, MHA agar, 37° C., 16-20 hours, read-out: MIC): 16 µg/mL (≈ 41.7 µM) | MIC ([16]; BAA1705, K.p BAA-1705, standard strain, MHA agar, 37° C., 16-20 hours, read-out: MIC): 16 µg/mL (≈ 41.7 µM) | MIC ([17]; K.p 11544, CRE clinical isolate, MHA agar, 37° C., 16-20 hours, read-out: MIC): 32 µg/mL (≈ 83.4 µM) | MIC ([18]; K.p 12559, CRE clinical isolate, MHA agar, 37° C., 16-20 hours, read-out: MIC): 4 µg/mL (≈ 10.4 µM) | MIC ([19]; K.p 13249, CRE clinical isolate, MHA agar, 37° C., 16-20 hours, read-out: MIC): 64 µg/mL (≈ 167 µM) | MIC ([20]; K.p 5846, CRE clinical isolate, MHA agar, 37° C., 16-20 hours, read-out: MIC): 8 µg/mL (≈ 20.9 µM) | MIC ([21]; K.p 8733, CSE clinical isolate, MHA agar, 37° C., 16-20 hours, read-out: MIC): 0.03 µg/mL (≈ 0.0782 µM) | MIC ([22]; C.f 7646, CSE clinical isolate, MHA agar, 37° C., 16-20 hours, read-out: MIC): < 0.015 µg/mL | MIC [23]: > 128 µg/mL | MIC ([24]; C.f 9484, CRE clinical isolate, MHA agar, 37° C., 16-20 hours, read-out: MIC): 0.06 µg/mL (≈ 0.156 µM) | MIC ([25]; A.B 6383, CRE clinical isolate, MHA agar, 37° C., 16-20 hours, read-out: MIC): 64 µg/mL (≈ 167 µM) | MIC ([26]; A.B 8476, CRE clinical isolate, MHA agar, 37° C., 16-20 hours, read-out: MIC): 64 µg/mL (≈ 167 µM) | MIC [27]: 128 µg/mL (≈ 334 µM)
